Source: patent US8785429B2, “Dihydropyrrolonaphthyridinone compounds as inhibitors of JAK” (Takeda Pharmaceutical Company Limited, priority 2009, dated 2014)

Experiments:
[1] = target: T1, JAK3 (Homo sapiens, UniProt P52333); experiment: Assay for JAK3 Inhibition (phosphorylation of FAM-labeled substrate, Caliper LC-3000); assay type: biochemical; conditions: −log10(IC50), IC50 is the molar concentration at 50% inhibition; read-out: JAK3 pIC50 (converted)
T1 construct: purchased Invitrogen
T1 sequence (P52333 1-1124): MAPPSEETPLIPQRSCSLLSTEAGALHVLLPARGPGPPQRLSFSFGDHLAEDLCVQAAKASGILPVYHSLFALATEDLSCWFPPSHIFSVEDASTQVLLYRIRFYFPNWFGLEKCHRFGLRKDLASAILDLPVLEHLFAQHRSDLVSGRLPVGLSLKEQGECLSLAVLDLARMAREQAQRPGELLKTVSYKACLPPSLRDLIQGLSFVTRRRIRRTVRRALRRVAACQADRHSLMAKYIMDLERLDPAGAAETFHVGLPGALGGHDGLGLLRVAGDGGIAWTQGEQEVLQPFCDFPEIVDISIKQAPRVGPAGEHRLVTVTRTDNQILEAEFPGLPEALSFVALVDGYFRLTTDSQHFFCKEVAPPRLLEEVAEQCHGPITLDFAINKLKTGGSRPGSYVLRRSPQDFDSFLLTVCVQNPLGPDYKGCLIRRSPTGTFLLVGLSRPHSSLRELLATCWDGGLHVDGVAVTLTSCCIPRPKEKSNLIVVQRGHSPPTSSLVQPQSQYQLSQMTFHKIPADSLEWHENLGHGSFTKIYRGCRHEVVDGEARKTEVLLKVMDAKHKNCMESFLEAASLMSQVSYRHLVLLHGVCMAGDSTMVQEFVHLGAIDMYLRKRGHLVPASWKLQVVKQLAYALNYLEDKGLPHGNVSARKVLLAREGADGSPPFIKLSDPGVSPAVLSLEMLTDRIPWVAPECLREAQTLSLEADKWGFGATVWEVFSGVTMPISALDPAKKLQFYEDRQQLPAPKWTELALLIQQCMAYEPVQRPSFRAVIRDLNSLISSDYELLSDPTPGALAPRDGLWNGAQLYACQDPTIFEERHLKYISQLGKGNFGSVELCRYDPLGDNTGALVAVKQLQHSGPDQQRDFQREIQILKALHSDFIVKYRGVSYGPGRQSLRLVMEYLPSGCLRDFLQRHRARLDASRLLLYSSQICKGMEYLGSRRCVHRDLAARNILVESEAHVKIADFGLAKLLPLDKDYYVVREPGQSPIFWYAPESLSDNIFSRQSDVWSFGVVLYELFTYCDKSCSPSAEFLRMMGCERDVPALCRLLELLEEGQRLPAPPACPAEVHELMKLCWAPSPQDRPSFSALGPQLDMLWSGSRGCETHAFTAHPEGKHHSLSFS
Method: (§1) A compound's ability to inhibit JAK activity may be assessed using a variety of methods, including in vitro and in vivo assays. The following in vitro assays measure a test compound's ability to inhibit JAK2- and JAK3-mediated phosphorylation of FAM-labeled JAK-specific substrates.
(§2) Purified JAK2 and JAK3 proteins were purchased from Invitrogen. JAK2 and JAK3 inhibition is determined using a black 384-well-plate format in buffer containing 50 mM HEPES, 10 mM NaCl, 10 mM MgCl2, 0.2 mM EDTA, 0.01% EDA (Brij® 35), 1 mM DTT, 0.1 mg/mL BSA at pH 7.3. Each test compound is prepared in DMSO using 2-fold serial dilutions for 11 data points and is added to the buffer so that each dilution contains 3% DMSO.
(§3) To each well is added 2 μL of 3 μM 5FAM-KKKKEEIYFFFG-NH2 and 15 μM ATP (in buffer), 2 μL of diluted test compound (3% DMSO in medium), and 2 μL of 1.2 nM JAK3 in buffer. The reaction mixture is incubated at room temperature for 60 min and is quenched by adding 50 mM HEPES, 30 mM EDTA, and 0.1% Tx-100 (pH 7.3). To quantify the fluorescent-labeled substrate and product following reaction, the test plate is loaded on a Caliper LC-3000, which measures percent of conversion by microfluidic-based separation.
(§4) Corresponding IC50 values are calculated by non-linear curve fitting of the compound concentrations and percent of inhibition to the standard IC50 equation.

[2] = target: T2, JAK2 (Homo sapiens, UniProt O60674); experiment: Assay for JAK2 Inhibition (phosphorylation of FAM-labeled substrate, Caliper LC-3000); assay type: biochemical; conditions: −log10(IC50), IC50 is the molar concentration at 50% inhibition; read-out: JAK2 pIC50 (converted)
T2 construct: purchased Invitrogen
Method: as §1, §2
as §3, with “45” for “15”, “0.6” for “1.2”, “JAK2” for “JAK3”, “HEPeX,” for “HEPES,”
as §4

T2 sequence (O60674 whole entry): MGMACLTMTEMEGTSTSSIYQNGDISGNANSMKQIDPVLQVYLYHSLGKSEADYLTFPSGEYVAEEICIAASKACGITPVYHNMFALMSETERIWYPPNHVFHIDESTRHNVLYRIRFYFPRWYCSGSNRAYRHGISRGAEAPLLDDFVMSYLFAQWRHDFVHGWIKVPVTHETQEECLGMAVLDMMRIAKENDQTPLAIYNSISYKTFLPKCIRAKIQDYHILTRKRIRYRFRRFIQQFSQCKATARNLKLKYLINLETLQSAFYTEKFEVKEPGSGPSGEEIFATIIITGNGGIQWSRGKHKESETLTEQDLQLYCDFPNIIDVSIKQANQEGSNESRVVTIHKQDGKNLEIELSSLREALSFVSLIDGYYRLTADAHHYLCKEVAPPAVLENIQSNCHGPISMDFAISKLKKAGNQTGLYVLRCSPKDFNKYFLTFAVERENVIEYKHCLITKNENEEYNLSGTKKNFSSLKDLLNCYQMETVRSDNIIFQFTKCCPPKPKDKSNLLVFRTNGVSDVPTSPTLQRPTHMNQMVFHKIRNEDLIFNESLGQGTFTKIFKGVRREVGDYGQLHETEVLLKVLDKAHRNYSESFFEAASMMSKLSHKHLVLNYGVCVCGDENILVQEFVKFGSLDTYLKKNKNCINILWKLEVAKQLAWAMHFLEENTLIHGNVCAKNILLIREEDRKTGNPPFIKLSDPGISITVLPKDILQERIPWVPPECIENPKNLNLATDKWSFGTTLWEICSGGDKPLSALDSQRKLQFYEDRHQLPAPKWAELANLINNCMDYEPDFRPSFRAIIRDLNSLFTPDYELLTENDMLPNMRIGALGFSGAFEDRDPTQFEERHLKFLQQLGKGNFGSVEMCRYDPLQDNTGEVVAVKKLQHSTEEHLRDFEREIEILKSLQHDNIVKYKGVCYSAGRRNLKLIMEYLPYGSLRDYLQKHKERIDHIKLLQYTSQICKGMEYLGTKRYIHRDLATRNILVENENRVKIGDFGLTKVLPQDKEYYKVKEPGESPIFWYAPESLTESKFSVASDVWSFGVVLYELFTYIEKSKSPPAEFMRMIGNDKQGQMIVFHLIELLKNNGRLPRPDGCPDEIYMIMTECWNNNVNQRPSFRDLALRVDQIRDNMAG

Compound	IC50 [1] [nM]	IC50 [2] [nM]
N#CC[C@H](C(=O)NC1CCCC1)N1Cc2c(Cl)cnc3[nH]cc(c23)C1=O [Example 30, (R)-2-(6-chloro-3-oxopyrrolo[4,3,2-de][2,6]naphthyridin-4(1H,3H,5H)-yl)-3-cyano-N-cyclopentylpropanamide]	1260	3160
O=C1c2ccnc3[nH]cc(c23)CN1C(CCO)C1CC1 (centres unmarked) [Example 11, 4-(1-cyclopropyl-3-hydroxypropyl)-3,4-dihydropyrrolo[4,3,2-de][2,6]naphthyridin-5(1H)-one]	316	398
CC(C)[C@H](C(=O)N1CCCC1)N1Cc2ccnc3[nH]cc(c23)C1=O [Example 20, (R)-4-(3-methyl-1-oxo-1-(pyrrolidin-1-yl)butan-2-yl)-4,5-dihydropyrrolo[4,3,2-de][2,6]naphthyridin-3(1H)-one]	79.4	1580
O=C(NC1CCCC1)[C@@H](CC(F)(F)F)N1Cc2ccnc3[nH]cc(c23)C1=O [Example 28, (R)—N-cyclopentyl-4,4,4-trifluoro-2-(3-oxopyrrolo[4,3,2-de][2,6]naphthyridin-4(1H,3H,5H)-yl)butanamide]	398	10000
CC[C@H](C(=O)N1CCCC1)N1Cc2ccnc3[nH]cc(c23)C1=O [Example 19, (R)-4-(1-oxo-1-(pyrrolidin-1-yl)butan-2-yl)-4,5-dihydropyrrolo[4,3,2-de][2,6]naphthyridin-3(1H)-one]	316	3980
CCC1(N2Cc3c[nH]c4nccc(c34)C2=O)CCN(C(=O)CC#N)CC1 [Example 9, 3-(4-ethyl-4-(5-oxopyrrolo[4,3,2-de][2,6]naphthyridin-4(1H,3H,5H)-yl)piperidin-1-yl)-3-oxopropanenitrile]	10	20
CC(C)[C@H](C(=O)N1CC(C)(C#N)C1)N1Cc2c(F)cnc3[nH]cc(c23)C1=O [Example 52, (R)-1-(2-(6-fluoro-3-oxopyrrolo[4,3,2-de][2,6]naphthyridin-4(1H,3H,5H)-yl)-3-methylbutanoyl)-3-methylazetidine-3-carbonitrile]	10	200
CC[C@@H](C)[C@H](C(=O)NC1CCCC1)N1Cc2ccnc3[nH]cc(c23)C1=O [Example 23, (2R,3R)—N-cyclopentyl-3-methyl-2-(3-oxopyrrolo[4,3,2-de][2,6]naphthyridin-4(1H,3H,5H)-yl)pentanamide]	398	3980
CC(C)[C@H](C(=O)N1CC(C#N)C1)N1Cc2c(F)cnc3[nH]cc(c23)C1=O [Example 42, (R)-1-(2-(6-fluoro-3-oxopyrrolo[4,3,2-de][2,6]naphthyridin-4(1H,3H,5H)-yl)-3-methylbutanoyl)azetidine-3-carbonitrile]	6.31	126
N#CCC(=O)N1CCC(N2Cc3c[nH]c4nccc(c34)C2=O)CC1 [Example 3, 3-oxo-3-(4-(5-oxopyrrolo[4,3,2-de][2,6]naphthyridin-4(1H,3H,5H)-yl)piperidin-1-yl)propanenitrile]	1580	794
O=C1c2ccnc3[nH]cc(c23)CN1CC1CCNC1 (centres unmarked) [Example 13, 4-(pyrrolidin-3-ylmethyl)-3,4-dihydropyrrolo[4,3,2-de][2,6]naphthyridine-5(1H)-one]	3160	5010
CC(C)(C)[C@H](C(=O)NCCC#N)N1Cc2c(Cl)cnc3[nH]cc(c23)C1=O [Example 40, (R)-2-(6-chloro-3-oxopyrrolo[4,3,2-de][2,6]naphthyridin-4(1H,3H,5H)-yl)-N-(2-cyanoethyl)-3,3-dimethylbutanamide]	50.1	1260
CC(C)[C@H](C(=O)NC1CCS(=O)(=O)C1)N1Cc2c(F)cnc3[nH]cc(c23)C1=O (stereo partly drawn) [Example 45, (R)-2-(6-fluoro-3-oxopyrrolo[4,3,2-de][2,6]naphthyridin-4(1H,3H,5H)-yl)-3-methyl-N-(1,1-dioxidotetrahydrothien-3-yl)butanamide]	63.1	2000

Next, values leading:

IC50 [1] [nM]	IC50 [2] [nM]	Compound
794	10000	CC[C@H](C(=O)N1CCC(COC)C1)N1Cc2ccnc3[nH]cc(c23)C1=O (stereo partly drawn) [Example 60, 4-((2R)-1-(3-(methoxymethyl)pyrrolidin-1-yl)-1-oxobutan-2-yl)-4,5-dihydropyrrolo[4,3,2-de][2,6]naphthyridin-3(1 H)-one]
158	3160	CC[C@H](C(=O)NC1CCN(S(C)(=O)=O)CC1)N1Cc2ccnc3[nH]cc(c23)C1=O [Example 73, (R)—N-(1-(methylsulfonyl)piperidin-4-yl)-2-(3-oxopyrrolo[4,3,2-de][2,6]naphthyridin-4(1H,3H,5H)-yl)butanamide]
6310	20000	CC[C@H](C(=O)N1CCC(N(C)C)C1)N1Cc2ccnc3[nH]cc(c23)C1=O (stereo partly drawn) [Example 59, 4-((2R)-1-(3-(dimethylamino)pyrrolidin-1-yl)-1-oxobutan-2-yl)-4,5-dihydropyrrolo[4,3,2-de][2,6]naphthyridin-3(1 H)-one]
200	3160	CC(C)[C@H](C(=O)N1CCC[C@H]1C#N)N1Cc2c(Cl)cnc3[nH]cc(c23)C1=O [Example 84, (S)-1-((R)-2-(6-chloro-3-oxopyrrolo[4,3,2-de][2,6]naphthyridin-4(1H,3H,5H)-yl)-3-methylbutanoyl)pyrrolidine-2-carbonitrile]
3980	10000	CC(C)[C@H](C(=O)N(C)CCS(C)(=O)=O)N1Cc2c(F)cnc3[nH]cc(c23)C1=O [Example 78, (R)-2-(6-fluoro-3-oxopyrrolo[4,3,2-de][2,6]naphthyridin-4(1H,3H,5H)-yl)-N,3-dimethyl-N-(2-(methylsulfonyl)ethyl)butanamide]
63.1	1000	CC(C)[C@H](C(=O)N1CC(F)(F)C1)N1Cc2c(F)cnc3[nH]cc(c23)C1=O [Example 76, (R)-4-(1-(3,3-difluoroazetidin-1-yl)-3-methyl-1-oxobutan-2-yl)-6-fluoro-4,5-dihydropyrrolo[4,3,2-de][2,6]naphthyridin-3(1 H)-one]
2	39.8	CC(C)(C)[C@H](C(=O)N1CC(C#N)C1)N1Cc2ccnc3[nH]cc(c23)C1=O [Example 82, (R)-1-(3,3-dimethyl-2-(3-oxopyrrolo[4,3,2-de][2,6]naphthyridin-4(1H,3H,5H)-yl)butanoyl)azetidine-3-carbonitrile]
6310	20000	CC[C@H](C(=O)N1CCCC(C)C1)N1Cc2ccnc3[nH]cc(c23)C1=O (stereo partly drawn) [Example 61, 4-((2R)-1-(3-methylpiperidin-1-yl)-1-oxobutan-2-yl)-4,5-dihydropyrrolo[4,3,2-de][2,6]naphthyridin-3(1 H)-one]
12.6	251	CC(C)(C)[C@H](C(=O)NCC#N)N1Cc2ccnc3[nH]cc(c23)C1=O [Example 83, (R)—N-(cyanomethyl)-3,3-dimethyl-2-(3-oxopyrrolo[4,3,2-de][2,6]naphthyridin-4(1H,3H,5H)-yl)butanamide]
